Test results published in patent publication US20260216166A1, “COMPOUND FOR TREATMENT OF ERECTILE DYSFUNCTION” (Initiator Pharma A/S, priority 2023, published 2026).
“Also recorded” adds a separate entry of the source. Like-named read-outs stand apart in the source and are kept apart here.

Assays:
[1] = Phase I ascending single oral dose pharmacokinetics in healthy male subjects; assay type: in vivo, human; conditions: for half-life / Tmax: male, human, plasma
Description: The study was a Phase I, randomised, double-blind, placebo-controlled, ascending single oral dose, safety, tolerability, pharmacokinetic (PK) and pharmacodynamics (PD) study of IP2015 in healthy male subjects.
Each subject received one oral dose of IP2015 or matched placebo. The starting dose of IP2015 was 0.01 mg in Cohort 1. The dose level was to be escalated to a maximum of 0.05 mg in Cohort 2 and a maximum of 0.2 mg in Cohort 3. The doses in the remaining five cohorts were to be determined based on the dose escalation criteria. In every cohort, no more than 2 subjects were dosed on the first dosing day (1 active; 1 placebo) such that no more than 1 subject received an active IP2015 dose for the first time at each dose level.
The IP2015 or matched placebo was administered once on the morning of Day 1 as an oral solution in the fasted state. The dose was taken with 240 ml of water at room temperature. Subjects/participants were fasted overnight prior to dosing until 4 hours postdose. Water was allowed ad libitum except for 1 hour before and 1 hour after dosing.
The doses used in each cohort were as follows: • Cohort 1-0.01 mg • Cohort 2-0.05 mg • Cohort 3-0.2 mg • Cohort 4-0.6 mg • Cohort 5-1.8 mg • Cohort 6-5.4 mg • Cohort 7-16.2 mg • Cohort 8-10 mg
The study also evaluated plasma PK concentrations and parameters including but not limited to: area under the plasma concentration vs time curve (AUC), from time zero to the last quantifiable concentration (AUC0-t), AUC from zero to infinity (AUC0-∞), observed maximum plasma concentration (Cmax), time to reach maximum plasma concentration (tmax) and terminal elimination half-life (T½) in healthy male subjects. Blood samples for the determination of plasma concentrations of IP2015 were collected at predose, and 0.25, 0.5, 1, 1.5, 2, 3, 4, 6, 8, 12, 16, 24, 36 and 48 hours postdose.
Safety parameters were listed and summarised using descriptive statistics. Pharmacokinetic parameter estimates were calculated using noncompartmental methods. Pharmacokinetic data were listed for each subject/patient and summarised by descriptive statistics.
Dose proportionality was analysed for Part A with a linear regression model using the logarithm of a PK parameter as responsible variable and the logarithm of the dose as the independent variable. The linear regression model can be expressed as: […]
The above model was applied to the following PK parameters; AUC0-t, AUC0-∞ and Cmax. Based on the linear regression model, the dose proportionality coefficient (slope) and its two-sided 90% confidence interval (CI) were estimated. Dose proportionality was declared if the 90% CI for the slope was completely contained in the following range 16: 1+log (0.5)/log (r), 1+log (2)/log (r), where r is the high dose/low dose.

[2] = tested on: male subjects with erectile dysfunction (ED); test: IIEF-15 questionnaire after repeat single oral doses in male subjects with ED; assay type: in vivo, human
From the text: The international index of erectile function (IIEF-15) questionnaire is a validated, multi-dimensional, self-administered investigation that has been found useful in the clinical assessment of erectile dysfunction and treatment outcomes in clinical trials. A score of 0-5 is awarded to each of the 15 questions that examine the main domains of male sexual function: erectile function, orgasmic function, sexual desire and intercourse satisfaction.
130 subjects were divided into 3 groups upon which the study was conducted in parallel. Each subject was dosed on four occasions with either 5 mg IP2015, 10 mg IP2015 or matched placebo. In each group, subjects were randomised evenly to each of the three study treatments and received the same treatment at each visit.
The study lasted approximately 8 weeks and consisted of the following: • A screening visit (up to 21 days prior to the baseline visit) • A baseline visit (Day −7). • Outpatient visits on Week 1 (Day 1), Week 2, Week 3 and Week 4 • A follow-up visit a minimum of 7 to 10 days after their final dose.
On Day-7, and at the Week 1 (Day 1), Week 2, Week 3, Week 4 and Follow-up visits, all groups were asked to complete the IIEF-15 questionnaire. Group 2 was asked to complete a Visual Stimulation Assessment using a RigiScan Plus Monitor on Day-7, Week 1 (Day 1) and Week 4. Group 2 was also required to provide blood samples for pharmacokinetic assessment on Week 1 (Day 1) and Week 4. Group 3 was required to provide semen samples on Day-7 and Week 4.
There were three potential study treatments of 5 mg IP2015, 10 mg IP2015 or matched placebo. In each group, subjects were randomised evenly to each of the three study treatments and received the same treatment on each visit. IP2015 or matched placebo was administered once in the morning of Week 1 (Day 1), Week 2, Week 3, and Week 4 as an oral solution in the fasted state. The dose was taken with 240 ml of water at room temperature. Subjects had fasted 2 hours prior to dosing until 4 hours postdose. Water was allowed ad libitum except for 1 hour before and 1 hour after dosing.
Efficacy was assessed through the International Index of Erectile Function (IIEF)-15 questionnaire. The change from baseline in responses to questions of the IIEF-15 questionnaire, including questions regarding erectile function, orgasmic function, sexual desire, intercourse satisfaction and overall satisfaction domain scores, was determined at different time points of the study. RigiScan assessments during the stimulus assessment, and sperm count and motility by semen sample collection was used for efficacy evaluation. Safety was assessed through AE reporting, 12-lead ECG, vital signs, physical examinations and clinical laboratory evaluations. Pharmacokinetics was assessed by blood sampling.
The results are means±SE. The statistical differences were performed with Mixed Model Repeated Measures (MMRM).

[3] = 0.2 to 16.2 mg single dose range

With `COc1cc2ccc(OC3CC4CCC(C3)N4)cc2oc1=O` (stereo not shown) [IP2015, 7-[(8-azabicyclo[3.2.1]octan-3-yl)oxy]-3-methoxy-chromen-2-one] the “increase of systemic exposure with dose based on AUC0-t” value [1, 3] was “greater than dose-proportional manner”, the “increase of systemic exposure with dose based on AUC0-∞ and Cmax” value [1, 3] was “slightly more than dose-proportional manner” and the “subjects with plasma concentrations below the LLOQ” value ([1]; healthy males, 0.2 mg) was 3/7. The “plasma concentrations of IP2015” value ([1]; healthy males, single oral 0.01 mg and 0.05 mg) was “below the LLOQ for all subjects”, the half-life ([1]; oral, healthy males, 0.6 mg, calculated for 1/6 subjects, read-out: mean t½ (converted)) was 14.5 h and the half-life ([1]; oral, healthy males, 1.8 mg, calculated for 3/6 subjects, read-out: mean t½ (converted)) was 16.1 h. The Tmax ([1]; oral, healthy males, across all dose levels, read-out: tmax range) was 1 to 6 h, the half-life ([1]; oral, healthy males, range of means across 5.4 mg to 16.2 mg doses, read-out: mean T½) was 23.1 to 26.3 h and the Tmax ([1]; healthy males, range of medians across single oral doses 0.2-16.2 mg, read-out: median tmax) was 2.25 to 5 h. For the same compound, the “efficacy in treating erectile dysfunction” value ([2]; 5 mg individual doses, human subjects, compared to placebo) was “effective in the treatment of erectile dysfunction; also recorded: effective in treating erectile dysfunction”, the “overall response to questions of IIEF-15 versus baseline” value ([2]; 5 mg, at follow-up, p=0.0046) was “significant” and the “overall response to questions of IIEF-15 versus placebo” value ([2]; 5 mg, at follow-up, p=0.07) was “tendency”. For the same compound, the “IIEF-15 overall score versus baseline” value ([2]; 5 mg, p=0.0032) was “the same was the case”, the “IIEF-15 Q4 (ability to maintain erection), overall score versus baseline” value ([2]; 5 mg, p=0.056) was “tendency to difference” and the “IIEF-15 overall score versus placebo” value ([2]; 5 mg, p=0.10) was “tendency”. The “IIEF-15 Q4, overall score compared to placebo” value ([2]; 5 mg, p=0.44) was “no difference”, the “IIEF-15 Q3, overall score” value ([2]; 5 mg, versus placebo (p=0.07) and versus baseline (p=0.07)) was “tendency to difference” and the “IIEF-15 Q3 (ability to penetrate), change from baseline” value ([2]; 5 mg, week 3, versus placebo (p=0.034) and versus baseline (p=0.046)) was “significant effect”. For the same compound, the “overall IIEF-15 score change” value ([2]; low dose of IP2015, clinically significant) was 2.
